Assay results taken from patent US9169259B2, “Imidazopyridazine compounds” (Hoffmann-La Roche Inc., priority 2011, dated 2015).
Structures can show the parent of a compound that is named as a salt.

Each compound was assayed against recombinant human SYK360-635 (Homo sapiens (Human), UniProt P43405) (assay: SYK kinase assay (33P ATP filtration, IC50 of SYK inhibition)). Settings: truncated SYK aa 360-635 0.5 nM, ATP 20 μM, peptide 5 μM, 30° C. 15 min; read-out: ENZYME_FILTRATION_IC50.
Format: biochemical
Experimental: Determination of IC50 of Spleen Tyrosine Kinase (SYK) Inhibition:
SYK kinase assay is a standard kinase assay adapted to a 96 well plate format. This assay is performed in 96-well format for IC50 determination with […] which represented 10 half log dilutions and a 40 μL reaction volume. The assay measures the incorporation of radiolabeled ^33P γATP into an N-terminally biotinylated peptide substrate, derived from naturally occurring phosphoacceptor consensus sequence (Biotin-11aa DY*E). Phosphorylated products were detected upon termination of reactions with EDTA and the addition of Streptavidin coated beads.
Assay plates: 96-well MultiScreen 0.65 um filter plates (Millipore Cat. No.: MADVNOB10)
final concentration: 50 mM HEPES pH7.5
BSA: Bovine Serum Albumin Fraction V, fatty acid free (Roche Diagnostics GmbH, Cat. No. 9100221) diluted to a final concentration of 0.1%
Assay Dilution Buffer (ADB): 50 mM HEPES, 0.1 mM EGTA, 0.1 mM Na Vanadate, 0.1 mM β-glycerophosphate, 10 mM MgCl2, 1 mM DTT, 0.1% BSA, pH 7.5
Bead wash buffer: 10 g/L PBS (Phosphate buffered saline) with 2M NaCl+1% phosphoric acid.
DMSO and the mixture was incubated for 10 min at RT.
The kinase reaction was initiated by the addition of 10 μL 4× substrate cocktail containing the DYE peptide substrate [0 or 5 μM], ATP [20 μM] and ^33PγATP [2 μCi/r×n]. After incubation at 30° C. for 15 min, the reaction was terminated by the transfer of 25 μL of the reaction sample to a 96 well 0.65 μm Millipore MADVNOB membrane/plate containing 200 μL 5 mM EDTA and 20% Streptavidine coated beads in PBS.
After the last wash membrane/plates were transferred to an adaptor plate, heat dried for 15 min at 60° C., and 50 μL scintillation cocktail was added to each well and 4 h later the amount of radioactivity was counted in a top counter.

SMILES | IC50 [nM]
C[C@H]1CCCN1c1cccc(Nc2cc(-c3cccc(Cl)c3)nn3ccnc23)n1 [Example I-71, [6-(3-Chloro-phenyl)-imidazo[1,2-b]pyridazin-8-yl]-[6-((S)-2-methyl-pyrrolidin-1-yl)-pyridin-2-yl]-amine hydrochloride] | 246
CC1CCCN1c1cccc(Nc2cc(-c3ccc(OCCN4CCOCC4)cc3)nn3ccnc23)n1 (stereo not drawn) [Example I-90, [6-(2-Methyl-pyrrolidin-1-yl)-pyridin-2-yl]-{6-[4-(2-morpholin-4-yl-ethoxy)-phenyl]-imidazo[1,2-b]pyridazin-8-yl}-amine] | 157
COCC1CCCN1c1cccc(Nc2cc(-c3ccccc3)nn3ccnc23)n1 (stereo not drawn) [Example I-35, [6-(2-Methoxymethyl-pyrrolidin-1-yl)-pyridin-2-yl]-(6-phenyl-imidazo[1,2-b]pyridazin-8-yl)-amine hydrochloride] | 834
CC1CCCN1c1cccc(Nc2cc(-c3ccc(C(=O)NCCc4ccncc4)cc3)nn3ccnc23)n1 (stereo not drawn) [Example I-16, 4-{8-[6-(2-Methyl-pyrrolidin-1-yl)-pyridin-2-ylamino]-imidazo[1,2-b]pyridazin-6-yl}-N-(2-pyridin-4-yl-ethyl)-benzamide] | 87.6
COc1ccc(Nc2cc(N3CCCC(C(=O)Nc4ccc(C(=O)O)cc4)C3)nn3ccnc23)nc1OC (stereo not drawn) [Example I-74, 4-({1-[8-(5,6-Dimethoxy-pyridin-2-ylamino)-imidazo[1,2-b]pyridazin-6-yl]-piperidine-3-carbonyl}-amino)-benzoic acid] | 14.9
CC1CCCN1c1cccc(Nc2cc(-c3cccc(O)c3)nn3ccnc23)n1 (stereo not drawn) [Example I-86, 3-{8-[6-(2-Methyl-pyrrolidin-1-yl)-pyridin-2-ylamino]-imidazo[1,2-b]pyridazin-6-yl}-phenol] | 102
CC(CO)NC(=O)c1cccc(-c2cc(Nc3cccc(N4CCCC4C)n3)c3nccn3n2)c1 (stereo not drawn) [Example I-41, N-(2-Hydroxy-1-methyl-ethyl)-3-{8-[6-(2-methyl-pyrrolidin-1-yl)-pyridin-2-ylamino]-imidazo[1,2-b]pyridazin-6-yl}-benzamide] | 130
CC1CCCN1c1cccc(Nc2cc(-c3ccncc3)nn3ccnc23)n1 (stereo not drawn) [Example I-81, [6-(2-Methyl-pyrrolidin-1-yl)-pyridin-2-yl]-(6-pyridin-4-yl-imidazo[1,2-b]pyridazin-8-yl)-amine] | 188
O=C(O)c1cccc(-c2cc(Nc3cccc(N4CCCC4CO)n3)c3nccn3n2)c1 (stereo not drawn) [Example I-20, 3-{8-[6-(2-Hydroxymethyl-pyrrolidin-1-yl)-pyridin-2-ylamino]-imidazo[1,2-b]pyridazin-6-yl}-benzoic acid] | 258
CC(C)(C)C1CCN(c2cccc(Nc3cc(-c4cccc(C(=O)O)c4)nn4ccnc34)n2)C1 (stereo not drawn) [Example I-66, 3-{8-[6-(3-tert-Butyl-pyrrolidin-1-yl)-pyridin-2-ylamino]-imidazo[1,2-b]pyridazin-6-yl}-benzoic acid] | 696
CC1CCCN1c1cccc(Nc2cc(-c3ccc(C(=O)O)cc3)nn3ccnc23)n1 (stereo not drawn) [Example I-15, 4-{8-[6-(2-Methyl-pyrrolidin-1-yl)-pyridin-2-ylamino]-imidazo[1,2-b]pyridazin-6-yl}-benzoic acid] | 84.2
CCN(CC)CCOc1ccc(-c2cc(Nc3cccc(N4CCCC4C)n3)c3nccn3n2)cc1 (stereo not drawn) [Example I-92, {6-[4-(2-Diethylamino-ethoxy)-phenyl]-imidazo[1,2-b]pyridazin-8-yl}-[6-(2-methyl-pyrrolidin-1-yl)-pyridin-2-yl]-amine] | 60.6
CC1CCCN1c1cccc(Nc2cc(-c3cccc(OCCN4CCCCC4)c3)nn3ccnc23)n1 (stereo not drawn) [Example I-87, [6-(2-Methyl-pyrrolidin-1-yl)-pyridin-2-yl]-{6-[3-(2-piperidin-1-yl-ethoxy)-phenyl]-imidazo[1,2-b]pyridazin-8-yl}-amine] | 210
CC1CCCN1c1cccc(Nc2cc(-c3ccccc3C(F)(F)F)nn3ccnc23)n1 (stereo not drawn) [Example I-48, [6-(2-Methyl-pyrrolidin-1-yl)-pyridin-2-yl]-[6-(2-trifluoromethyl-phenyl)-imidazo[1,2-b]pyridazin-8-yl]-amine hydrochloride] | 410
COc1cc(NC(=O)c2cccc(-c3cc(Nc4ccc(OC)c(OC)n4)c4nccn4n3)c2)ccc1C(=O)O [Example I-57, 4-{3-[8-(5,6-Dimethoxy-pyridin-2-ylamino)-imidazo[1,2-b]pyridazin-6-yl]-benzoylamino}-2-methoxy-benzoic acid] | 1.55
COC(=O)c1cccc(-c2cc(Nc3cccc(N4CCC(C(C)(C)C)C4)n3)c3nccn3n2)c1 (stereo not drawn) [Example I-65, 3-{8-[6-(3-tert-Butyl-pyrrolidin-1-yl)-pyridin-2-ylamino]-imidazo[1,2-b]pyridazin-6-yl}-benzoic acid methyl ester] | 1260
CC1CCCN1c1cccc(Nc2cc(-c3ccc4c(c3)OCO4)nn3ccnc23)n1 (stereo not drawn) [Example I-18, (6-Benzo[1,3]dioxol-5-yl-imidazo[1,2-b]pyridazin-8-yl)-[6-(2-methyl-pyrrolidin-1-yl)-pyridin-2-yl]-amine] | 115
CC1CCCN1c1cccc(Nc2cc(-c3cccc(C#N)c3)nn3ccnc23)n1 (stereo not drawn) [Example I-80, 3-{8-[6-(2-Methyl-pyrrolidin-1-yl)-pyridin-2-ylamino]-imidazo[1,2-b]pyridazin-6-yl}-benzonitrile] | 614

Second part, the compound after the results:

IC50 [nM] | SMILES
42.5 | CC1CCCN1c1cccc(Nc2cc(-c3cccc(C(=O)NCCO)c3)nn3ccnc23)n1 (stereo not drawn) [Example I-40, N-(2-Hydroxy-ethyl)-3-{8-[6-(2-methyl-pyrrolidin-1-yl)-pyridin-2-ylamino]-imidazo[1,2-b]pyridazin-6-yl}-benzamide]
103 | CNC(=O)c1ccc(NC(=O)c2cccc(-c3cc(Nc4ccc(OC)c(OC)n4)c4nccn4n3)c2)cc1 [Example I-96, 3-(8-(5,6-Dimethoxypyridin-2-ylamino)imidazo[1,2-b]pyridazin-6-yl)-N-(4-(methylcarbamoyl)phenyl)benzamide]
159 | Cc1ccccc1-c1cc(Nc2cccc(N3CCCC3C)n2)c2nccn2n1 (stereo not drawn) [Example I-47, [6-(2-Methyl-pyrrolidin-1-yl)-pyridin-2-yl]-(6-o-tolyl-imidazo[1,2-b]pyridazin-8-yl)-amine]
904 | CC1CC(C)CN(c2cccc(Nc3cc(-c4cccc(C(=O)O)c4)nn4ccnc34)n2)C1 (stereo not drawn) [Example I-38, 3-[8-(3,5-Dimethyl-3,4,5,6-tetrahydro-2H-[1,2′]bipyridinyl-6′-ylamino)-imidazo[1,2-b]pyridazin-6-yl]-benzoic acid]
261 | CCN(CC)CCOc1cccc(-c2cc(Nc3cccc(N4CCCC4C)n3)c3nccn3n2)c1 (stereo not drawn) [Example I-91, {6-[3-(2-Diethylamino-ethoxy)-phenyl]-imidazo[1,2-b]pyridazin-8-yl}-[6-(2-methyl-pyrrolidin-1-yl)-pyridin-2-yl]-amine]
79 | COc1ccc(Nc2cc(-c3ccc(C(=O)NCCc4ccn(C)c(=O)c4)cc3)nn3ccnc23)nc1OC [Example I-33, 4-[8-(5,6-Dimethoxy-pyridin-2-ylamino)-imidazo[1,2-b]pyridazin-6-yl]-N-[2-(1-methyl-2-oxo-1,2-dihydro-pyridin-4-yl)-ethyl]-benzamide]
194 | Cc1c(C(=O)O)cccc1-c1cc(Nc2cccc(N3CCC[C@@H]3C)n2)c2nccn2n1 [Example I-24, 2-Methyl-3-{8-[6-((S)-2-methyl-pyrrolidin-1-yl)-pyridin-2-ylamino]-imidazo[1,2-b]pyridazin-6-yl}-benzoic acid]
51 | CC1CCCN1c1cccc(Nc2cc(-c3cccc(OCCN4CCOCC4)c3)nn3ccnc23)n1 (stereo not drawn) [Example I-88, [6-(2-Methyl-pyrrolidin-1-yl)-pyridin-2-yl]-{6-[3-(2-morpholin-4-yl-ethoxy)-phenyl]-imidazo[1,2-b]pyridazin-8-yl}-amine]
1050 | CC1(C)CCN(c2cccc(Nc3cc(-c4ccccc4)nn4ccnc34)n2)C1 [Example I-34, [6-(3,3-Dimethyl-pyrrolidin-1-yl)-pyridin-2-yl]-(6-phenyl-imidazo[1,2-b]pyridazin-8-yl)-amine]
> 10000 | FC(F)(F)c1cccc(Nc2cc(-c3ccccc3)nn3ccnc23)n1 [Example I-1, (6-Phenyl-imidazo[1,2-b]pyridazin-8-yl)-(6-trifluoromethyl-pyridin-2-yl)-amine]
292 | COc1cccc(-c2cc(Nc3cccc(N4CCCC4C)n3)c3nccn3n2)c1 (stereo not drawn) [Example I-39, [6-(3-Methoxy-phenyl)-imidazo[1,2-b]pyridazin-8-yl]-[6-(2-methyl-pyrrolidin-1-yl)-pyridin-2-yl]-amine]
369 | COC(=O)c1ccc(-c2cc(Nc3cccc(N4CCCC4C)n3)c3nccn3n2)cc1 (stereo not drawn) [Example I-14, 4-{8-[6-(2-Methyl-pyrrolidin-1-yl)-pyridin-2-ylamino]-imidazo[1,2-b]pyridazin-6-yl}-benzoic acid methyl ester]
